# Measured values from EP1345943B1, “INHIBITORS OF PAPILLOMA VIRUS” (BOEHRINGER INGELHEIM (CANADA) LTD., priority 2000, dated 2002).
# Target: E1-E2-DNA complex (Human papillomavirus 11, UniProt P04015)
# Assay: E2-dependent E1 DNA binding assay (E1-E2 DNA assay)
# Conditions: E1-E2 DNA assay of Example 11, HPV-11
# Method in brief: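 SPA-format binding of E1 (about 100-200 ng purified) and E2 (8 ng) to a 0.4 ng [33P]-labelled 400 bp HPV-11 origin probe, in 20 mM Tris pH 7.6, 100 mM NaCl, 1 mM DTT, 1 mM EDTA, for 1 h at room temperature. Complex captured 1 h with anti-E1 C-terminal antiserum on protein A-SPA beads and counted by scintillation; IC50 derived.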
# E1-E2-DNA complex, sequence (P04015 whole entry, one chain of several): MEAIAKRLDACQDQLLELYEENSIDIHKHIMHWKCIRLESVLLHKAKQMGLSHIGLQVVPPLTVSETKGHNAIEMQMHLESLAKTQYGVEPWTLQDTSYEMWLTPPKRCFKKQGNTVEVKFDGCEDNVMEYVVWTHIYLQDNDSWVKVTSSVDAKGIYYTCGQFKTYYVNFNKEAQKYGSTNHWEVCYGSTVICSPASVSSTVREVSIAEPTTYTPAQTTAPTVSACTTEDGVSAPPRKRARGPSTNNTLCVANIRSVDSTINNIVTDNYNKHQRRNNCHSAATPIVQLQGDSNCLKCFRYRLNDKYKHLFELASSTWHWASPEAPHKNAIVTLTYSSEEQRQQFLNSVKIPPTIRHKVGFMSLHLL
row,Compound,IC50
1,N#Cc1cccc(NC(=O)C2C(c3ccc(Cl)c(Cl)c3)OC3(C(=O)c4ccccc4C3=O)C2C(=O)O)c1 (stereo not drawn) [Compound 1127],0.5 to 5 µM
2,COc1ccc2c(c1)C(=O)C1(OC(c3ccc(Cl)c(Cl)c3)C(C(=O)Nc3ccc(C(C)=O)cc3)C1C(=O)O)C2=O (stereo not drawn) [Compound 1129],5 to 50 µM
3,COc1ccc2c(c1)C(=O)C1(OC(c3ccc(Cl)c(Cl)c3)C(C(=O)Nc3ccc(C(C)=O)cc3)C1C(=O)O)C2=O (stereo not drawn) [Compound 1130],5 to 50 µM
4,O=C(Nc1ccc(OC(F)(F)F)cc1)C1C(c2ccc(F)c(Cl)c2)OC2(C(=O)c3ccccc3C2=O)C1C(=O)O (stereo not drawn) [Compound 1131],0.5 to 5 µM
5,Cc1ccc(NC(=O)C2C(c3ccc(F)c(F)c3)OC3(C(=O)c4ccccc4C3=O)C2C(=O)O)cc1 (stereo not drawn) [Compound 1132],5 to 50 µM
6,O=C(Nc1ccc(Cl)c(Cl)c1)C1C(c2ccc(Br)c(Br)c2)OC2(C(=O)c3ccccc3C2=O)C1C(=O)O (stereo not drawn) [Compound 1134],< 0.5 µM
7,O=C(NCCc1ccccc1Cl)C1C(c2ccc(Cl)c(Cl)c2)OC2(C(=O)c3ccccc3C2=O)C1C(=O)O (stereo not drawn) [Compound 1135],< 0.5 µM
8,CCOc1ccccc1NC(=O)C1C(c2ccc(Cl)c(Cl)c2)OC2(C(=O)c3ccccc3C2=O)C1C(=O)O (stereo not drawn) [Compound 1136],5 to 50 µM
9,COc1ccc(OC)c(CCNC(=O)C2C(c3ccc(Cl)c(Cl)c3)OC3(C(=O)c4ccccc4C3=O)C2C(=O)O)c1 (stereo not drawn) [Compound 1137],0.5 to 5 µM
10,O=C(NCCc1cccs1)C1C(c2ccc(Cl)c(Cl)c2)OC2(C(=O)c3ccccc3C2=O)C1C(=O)O (stereo not drawn) [Compound 1138],< 0.5 µM
11,O=C(Nc1ccccc1OC(F)(F)F)C1C(c2ccc(Cl)c(Cl)c2)OC2(C(=O)c3ccccc3C2=O)C1C(=O)O (stereo not drawn) [Compound 1139],0.5 to 5 µM
12,CN(CCN(C)c1ccc([N+](=O)[O-])c2nonc12)C(=O)CNCc1ccc(NC(=O)C2C(c3ccc(Cl)c(Cl)c3)OC3(C(=O)c4ccccc4C3=O)C2C(=O)O)cc1 (stereo not drawn) [Compound 1140],0.5 to 5 µM
13,CCCCC(=O)Nc1cc(C2OC3(C(=O)c4ccccc4C3=O)C(C(=O)O)C2C(=O)Nc2ccc(C(C)=O)cc2)ccc1Cl (stereo not drawn) [Compound 1141],0.5 to 5 µM
14,O=C(Nc1ccccc1Br)C1C(c2cc(Cl)cc(Cl)c2)OC2(C(=O)c3ccccc3C2=O)C1C(=O)O (stereo not drawn) [Compound 1142],< 0.5 µM
15,O=C(Nc1ccc(N2CCOCC2)cc1)C1C(c2ccc(Br)c(Br)c2)OC2(C(=O)c3ccc(F)cc3C2=O)C1C(=O)O (stereo not drawn) [Compound 1143],< 0.5 µM
16,O=C(Nc1ccc(N2CCOCC2)cc1)C1C(c2ccc(Br)c(Br)c2)OC2(C(=O)c3ccc(F)cc3C2=O)C1C(=O)O (stereo not drawn) [Compound 1144],< 0.5 µM
17,O=C1C2C(c3ccc(Cl)cc3)OC3(C(=O)c4ccccc4C3=O)C2C(=O)N1c1ccc2c(c1)OCO2 (stereo not drawn) [Compound 2001],5 to 50 µM
18,COc1ccc(N2C(=O)C3C(c4ccc(Cl)cc4)OC4(C(=O)c5ccccc5C4=O)C3C2=O)cc1OC (stereo not drawn) [Compound 2002],5 to 50 µM
19,CC(=O)c1ccc(N2C(=O)C3C(c4ccc(Cl)cc4)OC4(C(=O)c5ccccc5C4=O)C3C2=O)cc1 (stereo not drawn) [Compound 2003],5 to 50 µM
20,O=C1C2C(c3ccc(Cl)cc3)OC3(C(=O)c4ccccc4C3=O)C2C(=O)N1c1ccc(F)cc1 (stereo not drawn) [Compound 2004],5 to 50 µM
21,O=C1C2C(c3cccc(Cl)c3)OC3(C(=O)c4ccccc4C3=O)C2C(=O)N1c1ccc2c(c1)OCO2 (stereo not drawn) [Compound 2005],0.5 to 5 µM
22,Cc1ccc(N2C(=O)C3C(c4ccc(Cl)cc4)OC4(C(=O)c5ccccc5C4=O)C3C2=O)cc1 (stereo not drawn) [Compound 2006],5 to 50 µM
23,O=C1C2C(c3ccc(Cl)cc3)OC3(C(=O)c4ccccc4C3=O)C2C(=O)N1c1ccc(Cl)cc1 (stereo not drawn) [Compound 2007],5 to 50 µM
24,O=C1C2C(c3ccc(C(F)(F)F)cc3)OC3(C(=O)c4ccccc4C3=O)C2C(=O)N1c1ccc2c(c1)OCO2 (stereo not drawn) [Compound 2008],5 to 50 µM

row,Compound,IC50
1,O=C1C2C(c3ccc(Cl)cc3)OC3(C(=O)c4ccccc4C3=O)C2C(=O)N1c1cccc(Cl)c1 (stereo not drawn) [Compound 2009],5 to 50 µM
2,Cc1cccc(N2C(=O)C3C(c4ccc(Cl)cc4)OC4(C(=O)c5ccccc5C4=O)C3C2=O)c1 (stereo not drawn) [Compound 2010],5 to 50 µM
3,O=C1C2C(c3ccc(Cl)cc3)OC3(C(=O)c4ccccc4C3=O)C2C(=O)N1c1cccc(C(F)(F)F)c1 (stereo not drawn) [Compound 2011],5 to 50 µM
4,O=C1C2C(c3ccc(Cl)cc3)OC3(C(=O)c4ccccc4C3=O)C2C(=O)N1c1ccc2c(c1)CCC2 (stereo not drawn) [Compound 2012],5 to 50 µM
5,Cc1cccc(C2OC3(C(=O)c4ccccc4C3=O)C3C(=O)N(c4ccc5c(c4)OCO5)C(=O)C23)c1 (stereo not drawn) [Compound 2014],5 to 50 µM
6,O=C1C2C(c3ccc(Cl)cc3)OC3(C(=O)c4ccccc4C3=O)C2C(=O)N1c1ccc(C(F)(F)F)cc1 (stereo not drawn) [Compound 2015],5 to 50 µM
7,CC(C)(C)OC(=O)Nc1ccc(N2C(=O)C3C(c4ccc(Cl)c(Cl)c4)OC4(C(=O)c5ccccc5C4=O)C3C2=O)cc1 (stereo not drawn) [Compound 2018],5 to 50 µM
8,Nc1ccc(N2C(=O)C3C(c4ccc(Cl)c(Cl)c4)OC4(C(=O)c5ccccc5C4=O)C3C2=O)cc1 (stereo not drawn) [Compound 2019],0.5 to 5 µM
9,O=C1C2C(c3ccc(Cl)c(Cl)c3)OC3(C(=O)c4ccccc4C3=O)C2C(=O)N1c1ccc(O)cc1 (stereo not drawn) [Compound 2021],< 0.5 µM
10,O=C(CNCc1ccc(N2C(=O)C3C(c4ccc(Cl)c(Cl)c4)OC4(C(=O)c5ccccc5C4=O)C3C2=O)cc1)NCCNc1cccc2c(S(=O)(=O)O)cccc12 (stereo not drawn) [Compound 2022],5 to 50 µM
11,O=C1C2C(c3ccc(Br)c(Br)c3)OC3(C(=O)c4ccccc4C3=O)C2C(=O)N1c1ccc(N2CCOCC2)cc1 (stereo not drawn) [Compound 2023],< 0.5 µM
12,CC(NC(=O)C1C(c2ccc(Cl)c(Cl)c2)OC23C(=O)c4ccccc4C2(O)OC(=O)C13)c1ccccc1 (stereo not drawn) [Compound 3100],5 to 50 µM
13,O=C(Nc1ccc2c(c1)OCO2)C1C(c2ccc3ccccc3c2)OC2(C(=O)c3ccccc3C2=O)C1C(=O)O (stereo not drawn) [Compound 4001],0.5 to 5 µM
14,O=C(Nc1ccc2c(c1)OCO2)C1C(c2cc3ccccc3o2)OC2(C(=O)c3ccccc3C2=O)C1C(=O)O (stereo not drawn) [Compound 4002],5 to 50 µM
15,O=C(Nc1ccc2c(c1)OCO2)C1C(c2ccc3c(c2)OCO3)OC2(C(=O)c3ccccc3C2=O)C1C(=O)O (stereo not drawn) [Compound 4003],5 to 50 µM
16,CC(=O)c1ccc(NC(=O)C2C(c3ccc4ccccc4c3)OC3(C(=O)c4ccccc4C3=O)C2C(=O)O)cc1 (stereo not drawn) [Compound 4004],0.5 to 5 µM
17,CC(=O)c1ccc(NC(=O)C2C(C=Cc3cccc(Br)c3)OC3(C(=O)c4ccccc4C3=O)C2C(=O)O)cc1 (stereo not drawn) [Compound 4006],5 to 50 µM
18,CC(=O)c1ccc(NC(=O)C2C(C=Cc3ccccc3Br)OC3(C(=O)c4ccccc4C3=O)C2C(=O)O)cc1 (stereo not drawn) [Compound 4007],0.5 to 5 µM
19,CC(=O)c1ccc(NC(=O)C2C(C=Cc3cccc(Cl)c3Cl)OC3(C(=O)c4ccccc4C3=O)C2C(=O)O)cc1 (stereo not drawn) [Compound 4010],0.5 to 5 µM
20,CC(=O)c1ccc(NC(=O)C2C(C=Cc3ccccc3C)OC3(C(=O)c4ccccc4C3=O)C2C(=O)O)cc1 (stereo not drawn) [Compound 4011],5 to 50 µM
21,O=C(NCc1ccc2c(c1)OCO2)C1C(c2ccc(Cl)c(Cl)c2)OC2(C(=O)c3ccccc3C2=O)C1C(=O)O (stereo not drawn) [Compound 6001],5 to 50 µM
22,Cc1ccc2c(c1)C(=O)C1(OC(c3ccc(Br)c(Br)c3)C(C(=O)Nc3ccc(-c4csnn4)cc3)C1C(=O)O)C2=O (stereo not drawn) [Compound A1009],5 to 50 µM
23,CC(=O)c1ccc(NC(=O)C2C(c3ccc(Cl)c(Cl)c3)OC34C(=O)c5sc(C)cc5C3(O)OC(=O)C24)cc1 (stereo not drawn) [Compound C1001],5 to 50 µM
24,Cc1cc2c(s1)C(=O)C13OC(c4ccc(Br)c(Br)c4)C(C(=O)Nc4ccc(CNC(=O)OC(C)(C)C)cc4)C1C(=O)OC23O (stereo not drawn) [Compound C1003],0.5 to 5 µM
